Assay results from US11174230B2, “(E)-4-(4-acrylamidophenoxy)-N-methylpicolinamide conjugates as potential anticancer agents” (Council of Scientific & Industrial Research, priority 2016, dated 2021).

Tests used:
Conditions in all cases: after 48 h of drug treatment, average of three individual experiments
SKOV3 = experiment: MTT cytotoxicity assay, SKOV3 ovarian cancer cells; type: cell-based
Text: (§1) The (E)-4-(4-acrylamidophenoxy)-N-methylpicolinamide conjugates of general formulae 6a-6z and 7a-7aj have been evaluated for their cytotoxicity in selected human cancer cell lines i.e., lung (A549), prostate (DU-145), ovarian (SKOV3) and liver (HepG2) using MTT assay and the values obtained were compared to a standard drug sorafenib, with the concentration (treatment done at ranging from 10^−4 to 10^−8 M) of the compound produces to 50% inhibition of cell growth (IC50) as shown in Table 1. […] The IC50 values (in μM) for compounds 6b, 6c, 6d, 6e, 6g, 6l, 6m, 6o, 6p, 6q, 6t, 6z, 7b and 7g have been illustrated in Table 1.

HepG2 = experiment: MTT cytotoxicity assay, HepG2 liver cancer cells; type: cell-based, human
Text: as §1

DU145 = experiment: MTT cytotoxicity assay, DU145 prostate cancer cells; type: cell-based
Text: as §1

A549 = experiment: MTT cytotoxicity assay, A549 lung cancer cells; type: cell-based
Text: as §1

Row | SMILES | IC50 (SKOV3; SK-OV-3, Human ovarian cancer) [µM] | IC50 (HepG2; Homo sapiens, HepG2, 48 h) [µM] | IC50 (HepG2) [µM] | IC50 (DU145; DU-145, Human prostate cancer) [µM] | IC50 (A549; A549, Human lung cancer) [µM] | IC50 (A549; Human lung cancer) [µM] | IC50 (DU145; Human prostate cancer) [µM] | IC50 (SKOV3; Human ovarian cancer) [µM]
1 | CNC(=O)c1cc(Oc2ccc(NC(=O)/C=C/c3ccc(OC)cc3)cc2)ccn1 [Compound 6b, (E)-4-(4-(3-(4-methoxyphenyl)acrylamido)phenoxy)-N-methylpicolinamide] | 10.6 ± 0.32 | 8 to 13 | 9.5 |  |  |  |  | 
2 | CNC(=O)c1cc(Oc2ccc(NC(=O)/C=C/c3cccc(OC)c3OC)cc2)ccn1 [Compound 6c, (E)-4-(4-(3-(2,3-dimethoxyphenyl)acrylamido)phenoxy)-N-methylpicolinamide] |  | 8 to 13 | 12.4 ± 0.16 |  |  |  |  | 
3 | CNC(=O)c1cc(Oc2ccc(NC(=O)/C=C/c3cc(OC)c(OC)c(OC)c3)cc2)ccn1 [Compound 6d, (E)-N-methyl-4-(4-(3-(3,4,5-trimethoxyphenyl)acrylamido)phenoxy)picolinamide] |  | 8 to 13 | 10.2 | 21.1 ± 0.18 |  |  |  | 
4 | CNC(=O)c1cc(Oc2ccc(NC(=O)/C=C/c3cc(OC)ccc3OC)cc2)ccn1 [Compound 6e, (E)-4-(4-(3-(2,5-dimethoxyphenyl)acrylamido)phenoxy)-N-methylpicolinamide] |  | 8 to 13 | 10.1 | 29.5 ± 0.26 |  |  |  | 
5 | CNC(=O)c1cc(Oc2ccc(NC(=O)/C=C/c3cccc(O)c3)cc2)ccn1 [Compound 6g, (E)-4-(4-(3-(3-hydroxyphenyl)acrylamido)phenoxy)-N-methylpicolinamide] | 12 ± 0.11 | 8 to 13 | 10.9 ± 0.22 |  |  |  |  | 
6 | CNC(=O)c1cc(Oc2ccc(NC(=O)/C=C/c3ccc(Cl)cc3)cc2)ccn1 [Compound 6l, (E)-4-(4-(3-(4-chlorophenyl)acrylamido)phenoxy)-N-methylpicolinamide] | 12.6 ± 0.28 | 8 to 13 | 9.6 | 17.9 ± 0.24 |  |  |  | 
7 | CNC(=O)c1cc(Oc2ccc(NC(=O)/C=C/c3ccc(Cl)c(Cl)c3)cc2)ccn1 [Compound 6m, (E)-4-(4-(3-(3,4-dichlorophenyl)acrylamido)phenoxy)-N-methylpicolinamide] |  | 8 to 13 | 12.4 ± 0.32 | 23.3 ± 0.28 | 9.5 ± 0.22 |  |  | 
8 | CNC(=O)c1cc(Oc2ccc(NC(=O)/C=C/c3ccc(F)cc3)cc2)ccn1 [Compound 6o, (E)-4-(4-(3-(4-fluorophenyl)acrylamido)phenoxy)-N-methylpicolinamide] |  | 8 to 13 | 12.5 ± 0.18 |  |  |  |  | 
9 | CNC(=O)c1cc(Oc2ccc(NC(=O)/C=C/c3ccc(F)cc3F)cc2)ccn1 [Compound 6p, (E)-4-(4-(3-(2,4-difluorophenyl)acrylamido)phenoxy)-N-methylpicolinamide] |  | 8 to 13 | 13.1 ± 0.26 |  | 49.4 ± 0.54 |  |  | 
10 | CNC(=O)c1cc(Oc2ccc(NC(=O)/C=C/c3ccc(F)c(F)c3)cc2)ccn1 [Compound 6q, (E)-4-(4-(3-(3,4-difluorophenyl)acrylamido)phenoxy)-N-methylpicolinamide] | 11.2 ± 0.26 | 8 to 13 | 11.1 ± 0.14 |  |  |  |  | 
11 | CNC(=O)c1cc(Oc2ccc(NC(=O)/C=C/c3ccc(C(F)(F)F)cc3)cc2)ccn1 [Compound 6t, (E)-N-methyl-4-(4-(3-(4-(trifluoromethyl)phenyl)acrylamido)phenoxy)picolinamide] |  | 8 to 13 | 8.2 |  | 22.3 ± 0.22 |  |  | 
12 | CNC(=O)c1cc(Oc2ccc(NC(=O)/C=C/c3ccc([N+](=O)[O-])cc3)cc2)ccn1 [Compound 6z, (E)-N-methyl-4-(4-(3-(4-nitrophenyl)acrylamido)phenoxy)picolinamide] |  | 8 to 13 | 12.2 ± 0.22 | 28.7 ± 0.36 | 30.1 ± 0.28 |  |  | 
13 | CNC(=O)c1cc(Oc2ccc(NC(=O)/C=C/c3ccco3)cc2)ccn1 [Compound 7b, (E)-4-(4-(3-(furan-2-yl)acrylamido)phenoxy)-N-methylpicolinamide] |  | 8 to 13 | 10.2 |  |  |  |  | 
14 | CNC(=O)c1cc(Oc2ccc(NC(=O)/C=C/c3cccs3)cc2)ccn1 [Compound 7g, (E)-N-methyl-4-(4-(3-(thiophen-2-yl)acrylamido)phenoxy)picolinamide] |  | 8 to 13 | 13.2 ± 0.11 | 12.2 ± 0.26 | 24.1 ± 0.44 |  |  | 
15 | CNC(=O)c1cc(Oc2ccc(NC(=O)Nc3ccc(Cl)c(C(F)(F)F)c3)cc2)ccn1 [Sorafenib, reference compound] |  |  | 14.5 |  |  | 6.1 ± 0.18 | 6.5 ± 0.22 | 9.5 ± 0.12
